Source: patent publication US5866787A, “Transgenic plants co-expressing a functional human 2-5A system” (Cleveland Clinic Foundation, priority 1995, dated 1999)

How the values were obtained:
[1] = tested on: murine 2-5A-dependent RNase (truncated recombinant clone ZB1 and murine L cell enzyme); experiment: UV covalent crosslinking of 32P-2-5A probe with unlabeled oligonucleotide competitors, murine enzyme; type: binding; conditions: for competition with 2-5A probe binding: competitor 100 nM, recombinant 74 kDa protein produced in wheat germ extract
Experimental: FIG. 2A is a specific affinity of truncated murine 2-5A-dependent RNase for 2-5A. UV covalent crosslinking of the ^32 P-2-5A probe (lanes 1-7) to protein is performed after translation reactions in wheat germ extract (5 μl) with murine 2-5A-dependent RNase mRNA (from clone ZB1) (lanes 1-3) or without added RNA (lane 4) or in extract of interferon treated mouse L cells (100 μg of protein) (lanes 5-7). Reactions are without added competitor (lanes 1, 4, and 5) or in the presence of either timer core. (A2'p)2 A, (100 nM) (lanes 2 and 6) or timer 2-5A, p3 (A2'p)2 A (100 nM) (lanes 3 and 7).
Autoradiograms of the dried SDS/10% polyacrylamide gels are shown. Concentrations of the oligonucleotide competitors are indicated. […].
(§1) The synthesis of the 2-5A probe, p(A2'p)2 (br^8 A2'p)2 A[32P]Cp, and its crosslinking to 2-5A-dependent RNase is performed exactly as described. See Nolan-Sorden, N. L. et al., Anal. Biochem., 184:298-304 (1990). Briefly, the 2-5A probe, about 0.7 to 2.5 nM at […], is incubated for about one hour on ice with cell extract prepared as described, Silverman, R. H. and Krause, D., I.R.L. Press, Oxford, England, pp. 149-193 (1987), in the absence or presence of unlabeled oligonucleotide competitors. Covalent crosslinking is done under a uv lamp (308 nm) for one hour on ice and the proteins are separated on SDS/10% polyacrylamide gels. Filter assays for 2-5A binding activity using the 2-5A probe for about one hour on ice, as described in Knight, M. et al., Nature, 288:189-192 (1980).

[2] = tested on: recombinant human 2-5A-dependent RNase; experiment: UV covalent crosslinking of 2-5A probe with competitors, human enzyme; type: binding; conditions: competitor 100 nM; recombinant human enzyme produced in wheat germ extract
Experimental: FIG. 5A is specific affinity of recombinant human 2-5A-dependent RNase for 2-5A. Crosslinking of the 2-5A probe (lanes 1-7) to protein is performed after translation reaction in wheat germ extract (5 λl) with human 2-5A-dependent RNase mRNA (lanes 1-3) or without added RNA (lane 4) or in extract of human interferon a treated (1000 units per ml for 16 h) human HeLa cells (350 μg of protein) (lanes 5-7). Reactions were without added competitor (lanes 1, 4, and 5) or in the presence of either timer core, (A2'p)2 A, (100 nM) (lanes 2 and 6) or timer 2-5A, p3 (A2'p)2 A (100 nM) (lanes 3 and 7). Incubations with ^35 S-methionine are shown in lanes 8 to 12. Lane 8 is with wheat germ extract and human 2-5A-dependent RNase mRNA. Reticulocyte lysate preadsorbed to 2-5A-cellulose is incubated with human 2-5A-dependent RNase mRNA in the absence (lane 9) or presence (lane 10) of cycloheximide, or in the absence of added mRNA (lane 11). […] The positions and relative molecular masses (in kDa) of the marker proteins are indicated.
The synthesis of the 2-5A probe, p(A2'p)2 (br^8 A2'p)2 A[32P]Cp, and its crosslinking to 2-5A-dependent RNase is performed exactly as described. See Nolan-Sorden, N. L. et al., Anal. Biochem., 184:298-304 (1990). […]

2-5A probe = experiment: 2-5A binding activity of nested 3'-deletion clones (filter binding and uv crosslinking); conditions: produced in wheat germ extract
Text: See Example and Knight et al. 1980). The positions of the P-loop motifs and the lengths of the translation products are indicated. Clone ZB1 encodes for amino acids designated as 1-656 in Table 2, except for the last 5 amino acid residues which are Lys, Pro, Leu, Ser, and Gly. Clone ZB2 encodes for amino acids designated as 1-619 in Table 2. Clone ZB3 encodes for amino acids designated as 1-515 in Table 2. Clone ZB5 encodes for amino acids designated as 1-474 in Table 2. Clone ZB9 encodes for amino acids designated as 1-403 in Table 2. Clone ZB10 encodes for amino acids designated as 1-365 in Table 2. Clone ZB13 encodes for amino acids designated as 1-294 in Table 2. Clone ZB14 encodes for amino acids designated as […] in Table 2. Clone ZB15 encodes for amino acids designated as 1-218 in Table 2.
The set of nested 3'-deletions of the truncated murine 2-5A-dependent RNase cDNA, ZB1, is generated with exonuclease III/S1 nuclease digestion followed by filling-in with Klenow DNA Polymerase using the "Erase-A-Base" system (Promega).
as §1

poly(C) = experiment: Ribonuclease assay with 2-5A-cellulose, poly(C) substrate; type: biochemical; conditions: after one hour of incubation
Experimental: (§2) FIG. 5B is reticulocyte lysate pretreated to remove endogenous 2-5A-dependent RNase and is incubated in the absence of added mRNA (.box-solid.), in the presence of human 2-5A-dependent RNase mRNA without inhibitor (.smallcircle., .quadrature.) or in the presence of both 2-5A-dependent RNase mRNA and cycloheximide (50 μg per ml (.circle-solid.). See Example I. Subsequently, the recombinant 2-5A-dependent RNase (or controls) is adsorbed to 2-5A-cellulose and ribonuclease assays are performed after extensive washing of the matrix to reduce general nuclease activity. Radiolabeled substrate RNA was either poly(U) (.smallcircle., .circle-solid., .box-solid.) or poly(C) (.quadrature.).
(§3) The ribonuclease assay with 2-5A-cellulose is performed, as described by Silverman, R. H., Anal. Biochem., 144:450-460 (1985). Briefly, lysates are adsorbed to about […] of 2-5A-cellulose on ice for about two hours. The matrix is then washed three times by centrifuging and resuspending in buffer A. See Silverman, R. H., Anal. Biochem., 144:450-460 (1985). The matrix is then incubated with poly(U)-[^32 P]Cp or poly(C)-[^32 P]Cp (both at about 16 μM in nucleotide equivalents) at about 30° C. and the levels of acid-precipitable radioactive RNA are determined by filtration on glass-fiber filters.

poly(U) = experiment: Ribonuclease assay with 2-5A-cellulose, poly(U) substrate; type: biochemical; conditions: enzyme translated in reticulocyte lysate, bound to 2-5A-cellulose, 30° C.
Experimental: as §2, §3

[3] = 2-5A probe 2.4 nM, both recombinant and naturally occurring protein

## p3 I2'pA2'pA
[1]; [3]
  concentration required to prevent 2-5A probe binding: about 1.0 μM

## p3 A2'pA
[1]; [3]
  concentration required to prevent 2-5A probe binding: > 10 µM

## (A2'p)2 A
[1]; [3]
  concentration required to prevent 2-5A probe binding: 10 µM
[1]
  competition with 2-5A probe binding: fails to interfere with binding
[1]; relative to p3 (A2'p)2 A at about 20 nM
  fold higher concentration than trimer 2-5A required to prevent probe binding: 500 fold
[2]
  competition with 2-5A probe binding: not prevented

## p3 (A2'p)2 A
[1]; [3]
  concentration that prevents the 2-5A probe from binding: about 20 nM
[1]
  competition with 2-5A probe binding: completely prevents probe binding
[2]
  competition with 2-5A probe binding: effectively competes

B1: ZB11: murine 2-5A-dependent RNase deletion clone, amino acid residues 1 to 342 (protein, UniProt Q05921 1-342, looked up, fragment)
chain: METPDYNTPQGGTPSAGSQRTVVEDDSSLIKAVQKGDVVRVQQLLEKGADANACEDTWGWTPLHNAVQAGRVDIVNLLLSHGADPHRRKKNGATPFIIAGIQGDVKLLEILLSCGADVNECDENGFTAFMEAAERGNAEALRFLFAKGANVNLRRQTTKDKRRLKQGGATALMSAAEKGHLEVLRILLNDMKAEVDARDNMGRNALIRTLLNWDCENVEEITSILIQHGADVNVRGERGKTPLIAAVERKHTGLVQMLLSREGINIDARDNEGKTALLIAVDKQLKEIVQLLLEKGADKCDDLVWIARRNHDYHLVKLLLPYVANPDTDPPAGDWSPHSSRW
2-5A probe
  loss of 2-5A binding activity as compared to clone ZB1: about 26%

B2: ZB15: murine 2-5A-dependent RNase deletion clone, amino acids 1 to 218, both P-loop motifs deleted (protein, UniProt Q05921 1-218, looked up, fragment)
chain: METPDYNTPQGGTPSAGSQRTVVEDDSSLIKAVQKGDVVRVQQLLEKGADANACEDTWGWTPLHNAVQAGRVDIVNLLLSHGADPHRRKKNGATPFIIAGIQGDVKLLEILLSCGADVNECDENGFTAFMEAAERGNAEALRFLFAKGANVNLRRQTTKDKRRLKQGGATALMSAAEKGHLEVLRILLNDMKAEVDARDNMGRNALIRTLLNWDCENV
2-5A probe
  2-5A binding activity, % of clone ZB1: completely lacking

B3: ZB14: murine 2-5A-dependent RNase deletion clone, amino acids 1 to 265, one P-loop motif deleted (protein, UniProt Q05921 1-265, looked up, fragment)
chain: METPDYNTPQGGTPSAGSQRTVVEDDSSLIKAVQKGDVVRVQQLLEKGADANACEDTWGWTPLHNAVQAGRVDIVNLLLSHGADPHRRKKNGATPFIIAGIQGDVKLLEILLSCGADVNECDENGFTAFMEAAERGNAEALRFLFAKGANVNLRRQTTKDKRRLKQGGATALMSAAEKGHLEVLRILLNDMKAEVDARDNMGRNALIRTLLNWDCENVEEITSILIQHGADVNVRGERGKTPLIAAVERKHTGLVQMLLSREGIN
2-5A probe
  2-5A binding activity, % of clone ZB1: 1.9%

B4: ZB13: murine 2-5A-dependent RNase deletion clone, amino acids 1 to 294 (protein, UniProt Q05921 1-294, looked up, fragment)
chain: METPDYNTPQGGTPSAGSQRTVVEDDSSLIKAVQKGDVVRVQQLLEKGADANACEDTWGWTPLHNAVQAGRVDIVNLLLSHGADPHRRKKNGATPFIIAGIQGDVKLLEILLSCGADVNECDENGFTAFMEAAERGNAEALRFLFAKGANVNLRRQTTKDKRRLKQGGATALMSAAEKGHLEVLRILLNDMKAEVDARDNMGRNALIRTLLNWDCENVEEITSILIQHGADVNVRGERGKTPLIAAVERKHTGLVQMLLSREGINIDARDNEGKTALLIAVDKQLKEIVQLLLE
2-5A probe
  2-5A binding activity, % of clone ZB1: about 38.3%

B5: recombinant human 2-5A-dependent RNase: full-length human 2-5A-dependent RNase (clone ZC5) produced in vitro in reticulocyte lysate (protein)
chain: MESRDHNNPQEGPTSSSGRRAAVEDNHLLIKAVQNEDVDLVQQLLEGGANVNFQEEEGGWTPLHNAVQMSREDIVELLLRHGADPVLRKKNGATLFILAAIAGSVKLLKLFLSKGADVNECDFYGFTAFMEAAVYGKVKALKFLYKRGANVNLRRKTKEDQERLRKGGATALMDAAEKGHVEVLKILLDEMGADVNACDNMGRNALIHALLSSDDSDVEAITHLLLDHGADVNVRGERGKTPLILAVEKKHLGLVQRLLEQEHIEINDTDSDGKTALLLAVELKLKKIAELLCKRGASTDCGDLVMTARRNYDHSLVKVLLSHGAKEDFHPPAEDWKPQSSHWGAALKDLHRIYRPMIGKLKFFIDEKYKIADTSEGGIYLGFYEKQEVAVKTFCEGSPRAQREVSCLQSSRENSHLVTFYGSESHRGHLFVCVTLCEQTLEACLDVHRGEDVENEEDEFARNVLSSIFKAVQELHLSCGYTHQDLQPQNILIDSKKAAHLADFDKSIKWAGDPQEVKRDLEDLGRLVLYVVKKGSISFEDLKAQSNEEVVQLSPDEETKDLIHRLFHPGEHVRDCLSDLLGHPFFWTWESRYRTLRNVGNESDIKTRKSESEILRLLQPGPSEHSKSFDKWTTKINECVMKKMNKFYEKRGNFYQNTVGDLLKFIRNLGEHIDEEKHKKMKLKIGDPSLYFQKTFPDLVIYVYTKLQNTEYRKHFPQTHSPNKPQCDGAGGASGLASPGC
poly(C)
  poly(C) degraded: 20%
poly(U)
  half-life of poly(U) degradation: about 10 minutes
